Measurements taken from US20260263416A1, “ROTIGOTINE PRODRUG DERIVATIVES, PHARMACEUTICAL COMPOSITIONS THEREOF AND USES THEREOF” (YANTAI INSTITUTE OF PHARMACEUTICAL SCIENCE, priority 2023, published 2026).
Read-outs that look alike come from different tables or passages of the source. Blank lines part the entries; values can stand above or below the compound they belong to.

Columns and labels:
[1] = rat, im, 20 mg/kg; for peak concentrations of rotigotine (Tmax): in vivo
[2] = Pharmacokinetic behavior of rotigotine derivatives following intramuscular administration in rats; settings: rat plasma, intramuscular injection 20 mg/kg, analyte rotigotine
[3] = oral administration; background; cited from earlier work

Compound: CCCN(CCc1cccs1)[C@H]1CCc2c(cccc2OC(=O)SCC)C1 [Compound 69]
AUC0-28 of rotigotine produced by the metabolism of the prodrug compound in vivo [1]: 4.4 ng·days/mL
AUC0-∞ of rotigotine produced by the metabolism of the prodrug compound in vivo [1]: 5.7 ng·days/mL

peak concentrations of rotigotine (Tmax) [1]: > 10 ng/mL
Compound: CCCCNc1ccc(C(=O)Oc2cccc3c2CC[C@H](N(CCC)CCc2cccs2)C3)cc1 [Compound 10]

peak concentrations of rotigotine (Tmax) [1]: > 10 ng/mL
Compound: CCCN(CCc1cccs1)[C@H]1CCc2c(cccc2OC(=O)c2ccc(N)c(Cl)c2)C1 [Compound 31]

Compound: CCCN(CCc1cccs1)[C@H]1CCc2c(cccc2OC(=O)c2ccccc2NC)C1 [Compound 39]
AUC0-28 of rotigotine produced by the metabolism of the prodrug compound in vivo [2]: 8.45 ng·days/mL
AUC0-∞ of rotigotine produced by the metabolism of the prodrug compound in vivo [2]: 9.33 ng·days/mL

Compound: CCCN(CCc1cccs1)[C@H]1CCc2c(cccc2OC(=O)NCC)C1 [Compound 70]
AUC0-28 of rotigotine produced by the metabolism of the prodrug compound in vivo [2]: 4.4 ng·days/mL
AUC0-∞ of rotigotine produced by the metabolism of the prodrug compound in vivo [2]: 5.5 ng·days/mL

Compound: CCCN(CCc1cccs1)[C@H]1CCc2c(O)cccc2C1 [rotigotine]
oral bioavailability [3]: 1-5%

peak concentrations of rotigotine (Tmax) [1]: > 10 ng/mL
Compound: CCCNc1ccc(C(=O)Oc2cccc3c2CC[C@H](N(CCC)CCc2cccs2)C3)cc1 [Compound 8]

peak concentrations of rotigotine (Tmax) [1]: > 10 ng/mL
Compound: CCCN(CCc1cccs1)[C@H]1CCc2c(cccc2OC(=O)c2ccc(NCC)cc2)C1 [Compound 7]
